Measured values as given in patent publication US7528223B2 (priority 2002, dated 2009).

Experiments:
[1] = system: peptide-specific T cells in patient-derived peripheral blood mononuclear cells (PBMC); format: cell-based, human (HLA-A*0201 HCV positive patient); settings: for Counts-mean size >10 / Counts-mean size >25 / Counts-mean size >75: IFN-g ELIspot spot counts, Patient, Plate 11_01_03, patient-derived PBMC; for Counts-mean size >10: spot size >10; for Counts-mean size >25: spot size >25; for Counts-mean size >75: spot size >75; for number of peptide-specific T cells (IFN-g Elispot): PBMC of patient cured of chronic HCV infection, frozen 1996 (Table 5, FIG. 3)
Excerpt: Since those ncORF peptides are immunogenic in tg-mice, the present peptides were ananlysed in an ELIspot assay on PBL's from HCV+ patients.
Patient-derived peripheral blood mononuclear cells (PBMC) frozen in 1996 were thawed to perform an IFN-g Elispot assay with the following peptides: […]

[2] = system: peptide-specific IFN-γ producing cells; parameters: species or system C57B1/6 mice; settings: mouse, in vivo, sc

Row | Sequence | Counts-mean size >10 [1] | Counts-mean size >25 [1] | Counts-mean size >75 [1] | number of peptide-specific T cells (IFN-g Elispot) [1] | peptide-specific IFN-γ spots (ELIspot) [2]
1 | FMLGALLPI [Ipep 1373] | 159 | 86 | 3 | high numbers of peptide-specific T cells | –
2 | IASNENMETM [p1574, reference compound] | – | – | – | – | do not show any specific spots
3 | LLLQRWALV [Ipep 1372] | 43 | 36 | 13 | high numbers of peptide-specific T cells | –
4 | SSIAAQDAL [p1600] | – | – | – | – | do not show any specific spots
5 | TLWAGPLLKV [Ipep 1371] | 24 | 15 | 2 | high numbers of peptide-specific T cells | –
6 | TMLYNKMEF [p1569] | – | – | – | – | specifically release IFN-γ
7 | VTILNLALL [p1664] | – | – | – | – | specifically release IFN-γ
